Legend:
[1] = Tmax in mouse at 15 mg/kg, po; assay type: ADME, organism-based; conditions: in vivo
Toll-like receptor 9 [2] = molecular target: T1, Toll-like receptor 9 (Mus musculus, UniProt Q9EQU3); assay: Antagonist activity at TLR9 in mouse whole blood cells assessed as inhibition of ODN-2216 induced IL-6 production by ELISA; assay type: cell-based
T1 sequence (Q9EQU3 whole entry): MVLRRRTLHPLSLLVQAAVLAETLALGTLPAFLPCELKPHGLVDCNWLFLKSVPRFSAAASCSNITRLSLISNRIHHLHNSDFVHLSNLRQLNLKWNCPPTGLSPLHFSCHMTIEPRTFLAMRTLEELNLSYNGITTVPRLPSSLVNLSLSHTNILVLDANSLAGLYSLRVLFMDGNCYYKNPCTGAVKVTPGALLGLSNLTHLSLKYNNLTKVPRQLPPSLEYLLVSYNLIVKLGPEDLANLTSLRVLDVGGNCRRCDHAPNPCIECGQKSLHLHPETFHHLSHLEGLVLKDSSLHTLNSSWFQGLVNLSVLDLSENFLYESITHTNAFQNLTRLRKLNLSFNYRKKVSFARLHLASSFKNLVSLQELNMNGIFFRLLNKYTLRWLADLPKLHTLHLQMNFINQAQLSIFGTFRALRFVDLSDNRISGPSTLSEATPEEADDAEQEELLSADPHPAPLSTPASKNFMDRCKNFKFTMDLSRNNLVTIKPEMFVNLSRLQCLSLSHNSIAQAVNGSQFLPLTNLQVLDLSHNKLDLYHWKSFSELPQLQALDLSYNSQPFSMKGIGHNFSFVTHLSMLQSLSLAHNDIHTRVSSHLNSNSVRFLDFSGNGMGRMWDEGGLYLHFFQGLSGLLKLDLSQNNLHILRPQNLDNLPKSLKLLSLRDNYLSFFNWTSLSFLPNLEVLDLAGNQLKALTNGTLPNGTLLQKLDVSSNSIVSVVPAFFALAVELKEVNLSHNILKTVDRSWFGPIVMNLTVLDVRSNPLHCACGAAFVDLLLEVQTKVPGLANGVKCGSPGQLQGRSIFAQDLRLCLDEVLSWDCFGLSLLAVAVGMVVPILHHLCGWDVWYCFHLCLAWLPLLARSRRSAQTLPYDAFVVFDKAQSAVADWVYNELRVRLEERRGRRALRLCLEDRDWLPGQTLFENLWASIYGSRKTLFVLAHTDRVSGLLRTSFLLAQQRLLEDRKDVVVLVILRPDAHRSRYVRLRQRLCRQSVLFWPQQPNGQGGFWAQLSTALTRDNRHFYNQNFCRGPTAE

Toll-like receptor 9 [3] = molecular target: T2, Toll-like receptor 9 (Homo sapiens, UniProt Q9NR96); assay: Agonist activity at human TLR9 overexpressed in HEK-Blue cells assessed as NFkappaB expression by reporter gene assay; assay type: cell-based
T2 sequence (Q9NR96 whole entry): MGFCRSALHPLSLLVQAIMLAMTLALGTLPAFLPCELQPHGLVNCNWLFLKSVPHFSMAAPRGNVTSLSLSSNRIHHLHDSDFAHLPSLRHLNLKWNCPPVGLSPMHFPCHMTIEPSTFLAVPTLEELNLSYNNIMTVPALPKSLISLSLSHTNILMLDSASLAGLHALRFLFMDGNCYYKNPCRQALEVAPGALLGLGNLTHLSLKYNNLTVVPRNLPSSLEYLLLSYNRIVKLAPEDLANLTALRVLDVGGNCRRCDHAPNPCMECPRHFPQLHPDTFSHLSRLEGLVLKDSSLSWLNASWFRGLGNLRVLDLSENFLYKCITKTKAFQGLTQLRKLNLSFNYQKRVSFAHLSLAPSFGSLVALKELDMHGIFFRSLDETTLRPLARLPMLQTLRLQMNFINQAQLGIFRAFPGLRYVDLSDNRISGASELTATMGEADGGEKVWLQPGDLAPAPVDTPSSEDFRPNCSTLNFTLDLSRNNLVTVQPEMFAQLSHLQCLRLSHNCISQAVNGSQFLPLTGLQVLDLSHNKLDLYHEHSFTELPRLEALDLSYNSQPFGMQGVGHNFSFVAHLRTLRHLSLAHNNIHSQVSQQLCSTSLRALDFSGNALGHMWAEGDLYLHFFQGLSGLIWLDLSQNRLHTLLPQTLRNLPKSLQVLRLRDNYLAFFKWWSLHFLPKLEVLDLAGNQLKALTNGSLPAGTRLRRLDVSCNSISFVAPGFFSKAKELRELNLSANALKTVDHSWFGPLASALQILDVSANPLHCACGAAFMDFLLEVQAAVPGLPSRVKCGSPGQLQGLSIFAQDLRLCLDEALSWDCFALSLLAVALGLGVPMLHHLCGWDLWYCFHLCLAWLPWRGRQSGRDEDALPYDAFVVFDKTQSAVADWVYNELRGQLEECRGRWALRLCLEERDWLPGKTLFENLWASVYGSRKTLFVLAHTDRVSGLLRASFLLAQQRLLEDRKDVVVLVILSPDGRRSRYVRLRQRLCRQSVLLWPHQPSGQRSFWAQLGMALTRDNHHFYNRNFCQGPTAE

[4] = Terminal half life in mouse at 3 mg/kg, iv; assay type: ADME, organism-based; conditions: in vivo, read-out: beta t1/2 (converted)
Toll-like receptor 9 [5] = molecular target: T2, Toll-like receptor 9; assay: Antagonist activity at TLR9 (unknown origin) in PBMC cells assessed as reduction of IL-6 production; assay type: cell-based
Toll-like receptor 9 [6] = molecular target: T2, Toll-like receptor 9; assay: Antagonist activity at TLR9 in human whole blood cells assessed as inhibition of ODN-2216 induced IL-6 production by ELISA; assay type: cell-based
Toll-like receptor 4 = Toll-like receptor 4 (Homo sapiens, UniProt O00206); assay: Antagonist activity at human TLR4 overexpressed in HEK-Blue cells assessed as inhibition of […] induced NFkappaB and AP-1 activation preincubated for 30 mins followed by […] stimulation measured after 22 hrs by quanti-blue SEAP assay; assay type: cell-based
Sequence of Toll-like receptor 4 (O00206 whole entry): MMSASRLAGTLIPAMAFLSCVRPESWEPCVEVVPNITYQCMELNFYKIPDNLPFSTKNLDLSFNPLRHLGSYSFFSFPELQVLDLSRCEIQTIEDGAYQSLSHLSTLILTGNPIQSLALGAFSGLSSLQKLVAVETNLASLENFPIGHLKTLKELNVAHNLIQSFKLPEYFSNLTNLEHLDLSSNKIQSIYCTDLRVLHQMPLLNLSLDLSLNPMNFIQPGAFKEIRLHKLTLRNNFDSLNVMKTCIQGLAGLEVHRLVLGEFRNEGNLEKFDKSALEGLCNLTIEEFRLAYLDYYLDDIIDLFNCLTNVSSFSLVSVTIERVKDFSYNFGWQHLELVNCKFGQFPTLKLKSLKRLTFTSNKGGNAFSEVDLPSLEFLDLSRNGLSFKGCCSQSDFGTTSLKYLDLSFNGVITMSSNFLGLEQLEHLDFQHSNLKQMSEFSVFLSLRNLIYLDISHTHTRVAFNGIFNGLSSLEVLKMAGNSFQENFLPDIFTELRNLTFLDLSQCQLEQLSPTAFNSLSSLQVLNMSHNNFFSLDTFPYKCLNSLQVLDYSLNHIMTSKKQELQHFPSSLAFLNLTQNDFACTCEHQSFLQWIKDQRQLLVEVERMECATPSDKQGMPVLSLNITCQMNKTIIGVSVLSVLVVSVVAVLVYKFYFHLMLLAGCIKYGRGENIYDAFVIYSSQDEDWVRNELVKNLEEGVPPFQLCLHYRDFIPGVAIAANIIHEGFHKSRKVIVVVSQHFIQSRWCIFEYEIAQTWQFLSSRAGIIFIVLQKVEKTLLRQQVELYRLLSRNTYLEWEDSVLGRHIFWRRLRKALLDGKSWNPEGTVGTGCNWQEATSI

[7] = Cmax in mouse at 15 mg/kg, po; assay type: ADME, organism-based; design: dose 15 mg/kg, route oral; conditions: in vivo
[8] = Volume of distribution in steady state in mouse at 3 mg/kg, iv; assay type: ADME, organism-based; conditions: in vivo, read-out: Vdss
Toll-like receptor 9 [9] = molecular target: T2, Toll-like receptor 9; assay: Antagonist activity at human TLR9 overexpressed in HEK-Blue cells assessed as inhibition of ODN2006-induced NFkappaB and AP-1 activation preincubated for 30 mins followed by ODN2006 stimulation measured after 22 hrs by quanti-blue SEAP assay; assay type: cell-based

Tmax [1]: 0.5 h
IC50 (Toll-like receptor 9 [2]): 510 nM
IC50 (Toll-like receptor 9 [3]): > 50000 nM
half-life [4]: 32 h
IC50 (Toll-like receptor 9 [5]): 510 nM
IC50 (Toll-like receptor 9 [6]): 320 nM
IC50 (Toll-like receptor 4): 15100 nM
Cmax [7]: 1630 nM
Vd [8]: 20 L/kg
IC50 (Toll-like receptor 9 [9]): 700 nM
Compound: CNCCN1CCC(c2ccc3[nH]c(-c4ccc(OC)c(OC)c4)c(C(C)C)c3c2)CC1
